Measurements as given in patent publication US20260015322A1, “DELIVERY OF THERAPEUTIC ALKALOID COMPOUNDS” (priority 2022, published 2026).

Legend:
[1] = Hydrolysis Assay - Condition 2 (DI Water); type: physicochemical; settings: 25° C., 0.5 mM
Procedure: 50 uL of compound (10 mM) in DMSO was diluted into 950 uL of DI water to a final concentration of 0.5 mM. The hydrolysis kinetics were conducted at 25° C. and measured by LCMS at a certain time interval.
(§1) The corresponding LCMS chromatogram were recorded and the conversions were calculated by integration of each peak.
(§2) • 1) LCMS spectra were obtained using Agilent 1200G1956A or SHIMADZU LCMS-2020. • Standard LCMS conditions were as follows (running time 1.55 minutes): • Acidic condition: Mobile Phase A: 0.0375% TFA in water (v/v). Mobile Phase B: 0.01875% TFA in acetonitrile (v/v); Column: Kinetex EVO C18 30*2.1 mm, 5 μm. • Basic condition: Mobile Phase A: 0.025% NH3·H2O in water (v/v). Mobile Phase B: Acetonitrile; Column: Kinetex EVO C18 2.1×30 mm, 5 μm. • 2) Conversion (%)=peak area 1/(peak area 1+peak area 2)*100%, peak area 1 is the integration of hydrolyzed product, peak area 2 is the integration of starting material.

[2] = Hydrolysis Assay - Condition 1 (SGF); type: physicochemical; settings: Condition 1: SGF with pepsin pH 1.5, 37° C., 0.5 mM
Procedure: 50 uL of compound (10 mM) in DMSO was diluted into 950 uL of Simulated Gastric Fluid (SGF) with pepsin (pH 1.5) to a final concentration of 0.5 mM. The hydrolysis kinetics were conducted at 37° C. and measured by LCMS at a certain time interval.
as §1, §2

[3] = Plasma Stability Assay (Example A2), human plasma; type: in vitro ADME; settings: 37° C., prodrug remaining
Procedure: (§3) Each test was carried out in duplicate for each time point; 0 min, 15 min, 30 min, 60 min, 120, 240 min. […]

[4] = Plasma Stability Assay (Example A2), mouse plasma; type: in vitro ADME; settings: Mouse Plasma, 37° C., prodrug remaining
Procedure: as §3

[5] = Plasma Stability Assay (Example A3), human plasma; type: in vitro ADME; settings: 10 μM, 37° C., prodrug remaining
From the text: (§4) The data is represented in the table below.

[6] = Plasma Stability Assay (Example A3), rat plasma; type: in vitro ADME; settings: 10 μM, 37° C., prodrug remaining
From the text: as §4

SMILES	Conversion (%) ([1]; 1 min)	Conversion (%) ([1]; 5 min)	Conversion (%) ([1]; 30 min)	Conversion (%) ([1]; 1 h)	Conversion (%) ([1]; 4 h)	Conversion (%) ([1]; 24 h)	Conversion (%) ([2]; 1 min)	Conversion (%) ([2]; 5 min)	Conversion (%) ([2]; 30 min)	Conversion (%) ([2]; 1 h)	Conversion (%) ([2]; 4 h)	Conversion (%) ([2]; 24 h)	Prodrug (%) ([3]; 0 min)	Prodrug (%) ([3]; 15 min)	Prodrug (%) ([3]; 30 min)	Prodrug (%) ([3]; 60 min)	Prodrug (%) ([3]; 120 min)	Prodrug (%) ([3]; 240 min)	Prodrug (%) ([4]; 0 min)	Prodrug (%) ([4]; 15 min)	other results
COc1ccc([C@@]23CCC(OP(=O)(OCc4ccccc4)OCc4ccccc4)=C[C@@H]2N(C)CC3)cc1OC [Compound 319, [(3aS,7aS)-3a-(3,4-dimethoxyphenyl)-1-methyl-3,4,5,7a-tetrahydro-2H-indol-6-yl] dibenzyl phosphate]	2	4	5	10	20	59	2	5	25	26	60	61									
COc1ccc([C@@]23CCC(OP(=O)(Oc4ccccc4)Oc4ccccc4)=C[C@@H]2N(C)CC3)cc1OC [Compound 320, [(3aS,7aS)-3a-(3,4-dimethoxyphenyl)-1-methyl-3,4,5,7a-tetrahydro-2H-indol-6-yl]diphenyl phosphate]	0	0	0	0	0	0	0	0	0	0	0	0	100	95.7	98.5	95.7	98.2	95.3	100	58.5	Prodrug (%) ([4]; 30 min): 46.5%; Prodrug (%) ([4]; 60 min): 30.7%; Prodrug (%) ([4]; 120 min): 19.4%; Prodrug (%) ([4]; 240 min): 11.7%
COc1ccc([C@@]23CCC(OC(=O)N(C)C)=C[C@@H]2N(C)CC3)cc1OC [Compound 324, [(3aS,7aS)-3a-(3,4-dimethoxyphenyl)-1-methyl-3,4,5,7a-tetrahydro-2H-indol-6-yl] N,N-dimethylcarbamate]	0	0	0	0	0	0	0	0	0	0	0	0	100.0	98.2	98.7	>99	>99	96.5	100.0	97.4	Prodrug (%) ([4]; 30 min): 94.4%; Prodrug (%) ([4]; 60 min): 94.9%; Prodrug (%) ([4]; 120 min): 92.6%; Prodrug (%) ([4]; 240 min): 88.9%
CCN(C)C(=O)OC1=C[C@@H]2N(C)CC[C@]2(c2ccc(OC)c(OC)c2)CC1 [Compound 326, [(3aS,7aS)-3a-(3,4-dimethoxyphenyl)-1-methyl-3,4,5,7a-tetrahydro-2H-indol-6-yl]N-ethyl-N-methyl-carbamate]	0	0	0	0	0	0	0	0	0	0	0	0	100.0	98.2	99.9	98.4	>99	93.9	100.0	>99	Prodrug (%) ([4]; 30 min): 96.6%; Prodrug (%) ([4]; 60 min): >99%; Prodrug (%) ([4]; 120 min): >99%; Prodrug (%) ([4]; 240 min): 98.5%
COc1ccc([C@@]23CCC(OC(=O)N4CCN(C)CC4)=C[C@@H]2N(C)CC3)cc1OC [Compound 327, [(3aS,7aS)-3a-(3,4-dimethoxyphenyl)-1-methyl-3,4,5,7a-tetrahydro-2H-indol-6-yl]4-methylpiperazine-1-carboxylate]	0	0	0	0	0	0	0	0	0	0	0	0	100	>99	98.9	>99	>99	94.4	100	>99	Prodrug (%) ([4]; 30 min): >99%; Prodrug (%) ([4]; 60 min): >99%; Prodrug (%) ([4]; 120 min): >99%; Prodrug (%) ([4]; 240 min): >99%
COc1ccc([C@@]23CCC(OP(=O)(O)O)=C[C@@H]2N(C)CC3)cc1OC [Compound 359, [(3aS,7aS)-3a-(3,4-dimethoxyphenyl)-1-methyl-3,4,5,7a-tetrahydro-2H-indol-6-yl] dihydrogen phosphate]													100	69.0	65.1	50.4	32.8	25.6	100	>99	Prodrug (%) ([4]; 30 min): 82.7%; Prodrug (%) ([4]; 60 min): 79.0%; Prodrug (%) ([4]; 120 min): 50.7%; Prodrug (%) ([4]; 240 min): 59.1%
COc1ccc([C@@]23CCC(OP(=O)(O)OCOC(=O)C(C)C)=C[C@@H]2N(C)CC3)cc1OC [Compound 408, [[(3aS,7aS)-3a-(3,4-dimethoxyphenyl)-1-methyl-3,4,5,7a-tetrahydro-2H-indol-6-yl]oxy-hydroxy-phosphoryl]oxymethyl 2-methylpropanoate]																					Prodrug (%) ([5]; 0 min): 100.0%; Prodrug (%) ([5]; 10 min): 94.2%; Prodrug (%) ([5]; 30 min): 82.6%; Prodrug (%) ([5]; 60 min): 69.1%; Prodrug (%) ([5]; 120 min): 45.4%; Prodrug (%) ([5]; 240 min): 23.5%; Prodrug (%) ([6]; 0 min): 100.0%; Prodrug (%) ([6]; 10 min): 63.8%; Prodrug (%) ([6]; 30 min): 29.2%; Prodrug (%) ([6]; 60 min): 8.2%; Prodrug (%) ([6]; 120 min): 0.8%; Prodrug (%) ([6]; 240 min): 0.0%
COc1ccc([C@@]23CCC(OP(=O)(O)OCOC(=O)C(C)(C)C)=C[C@@H]2N(C)CC3)cc1OC [Compound 409, [[(3aS,7aS)-3a-(3,4-dimethoxyphenyl)-1-methyl-3,4,5,7a-tetrahydro-2H-indol-6-yl]oxy-hydroxy-phosphoryl]oxymethyl 2,2-dimethylpropanoate]																					Prodrug (%) ([5]; 0 min): 100.0%; Prodrug (%) ([5]; 10 min): >99%; Prodrug (%) ([5]; 30 min): 95.2%; Prodrug (%) ([5]; 60 min): 93.0%; Prodrug (%) ([5]; 120 min): 87.3%; Prodrug (%) ([5]; 240 min): 75.8%; Prodrug (%) ([6]; 0 min): 100.0%; Prodrug (%) ([6]; 10 min): 89.9%; Prodrug (%) ([6]; 30 min): 81.2%; Prodrug (%) ([6]; 60 min): 71.0%; Prodrug (%) ([6]; 120 min): 44.5%; Prodrug (%) ([6]; 240 min): 22.7%
COc1ccc([C@@]23CCC(OP(=O)(O)OCOC(=O)OC(C)C)=C[C@@H]2N(C)CC3)cc1OC [Compound 410, [[(3aS,7aS)-3a-(3,4-dimethoxyphenyl)-1-methyl-3,4,5,7a-tetrahydro-2H-indol-6-yl]oxy-hydroxy-phosphoryl]oxymethyl isopropyl carbonate]																					Prodrug (%) ([5]; 0 min): 100.0%; Prodrug (%) ([5]; 10 min): 96.3%; Prodrug (%) ([5]; 30 min): 98.8%; Prodrug (%) ([5]; 60 min): 92.7%; Prodrug (%) ([5]; 120 min): 88.2%; Prodrug (%) ([5]; 240 min): 75.5%; Prodrug (%) ([6]; 0 min): 100.0%; Prodrug (%) ([6]; 10 min): 63.0%; Prodrug (%) ([6]; 30 min): 25.4%; Prodrug (%) ([6]; 60 min): 7.1%; Prodrug (%) ([6]; 120 min): 0.52%; Prodrug (%) ([6]; 240 min): 0.01%
